Data published in article PMC9016125 (The Journal of Antibiotics, 2022).

Target: T1, sortase A (SrtA) (Staphylococcus aureus, UniProt Q2FV99)
T1 sequence (Q2FV99 1-206): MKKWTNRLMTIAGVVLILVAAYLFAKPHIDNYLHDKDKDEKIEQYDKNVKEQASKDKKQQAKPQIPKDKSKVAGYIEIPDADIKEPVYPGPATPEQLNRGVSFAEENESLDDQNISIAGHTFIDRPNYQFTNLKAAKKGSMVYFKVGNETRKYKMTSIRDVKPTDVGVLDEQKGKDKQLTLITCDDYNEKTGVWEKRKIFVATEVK
Experiment: microscale thermophoresis with labeled purified SrtA
Type: binding

Kd: 189 µM
SMILES: Nc1c(Cl)cccc1C(=O)Nc1ccccc1C(=O)O [compound 5, 2-(2-amino-3-chloro-benzoylamino)-benzoic acid]
